Source: patent publication US9926304B2, “1-(arylmethyl)quinazoline-2,4(1H,3H)-diones as PARP inhibitors and the use thereof” (Impact Therapeutics, Inc., priority 2011, dated 2018)
Like-named read-outs stand apart in the source and are kept apart here.

Key:
[1] = tested on: BRCA-2 deficient CAPAN-1 human pancreatic cancer cells; assay: MTT based cell viability assay: growth inhibition of BRCA-2 deficient CAPAN-1 cells; conditions: 240 h, compound alone, 10 day assay
PARP-1 enzyme = target: T1, PARP-1 enzyme (Homo sapiens, UniProt P09874); assay: PARP-1 enzymatic activity assay (Trevigen 96-well kit 4676-096-K); assay type: biochemical; conditions: 0.5 unit PARP-1, histone pre-coated plate, 60 min at room temperature; read-out: IC50 (nM), inhibitory effect on PARP-1 enzymatic activity
T1 construct: purchased Trevigen, Inc. 4676-096-K
From the text: Measurement of the inhibitory effect of 1-(3-(4-(pyrimidin-2-yl)piperazine-1-carbonyl)benzyl)quinazoline-2,4(1H,3H)-dione and analogs on PARP-1 enzymatic activity
Briefly, PARP-1 catalyzes the NAD-dependent addition of poly(ADP-ribose) to its nuclear protein substrates such as histones. The assay kit measures the incorporation of biotynylated poly(ADP-ribose) onto histone proteins in a 96-well format.

[2] = tested on: Human breast cancer cell line T47D; assay: Cell based caspase-3 activity assay: potentiation of MMS induced apoptosis; conditions: read-out: EC50 (nM), potentiation of the apoptosis inducing activity of MMS
Outline: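 T47D cells were exposed for 24 h to compound plus a minimally apoptotic MMS dose (medium containing 11.1 μg/ml MMS). Lysates were incubated 3 h at 37 °C with (Ac-DEVD)2-R110 caspase-3 substrate (20 μM in added buffer) and read at ex 496/em 520 nm. EC50 came from a sigmoidal fit of RFU versus log concentration.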

[3] = tested on: SW620 human colorectal cancer cells; assay: MTT based cell viability assay: potentiation of the growth inhibiting activity of MMS
advanced breast cancer = conditions: Phase II clinical trial; cited from earlier work
[4] = Homo sapiens, T47D, 24 h, T47D cells, 11.1 μg/ml MMS, 24 hours, intracellular caspase-3 activity
[5] = read-out: IC50 (nM), potentiation of the growth inhibiting activity of MMS, SW620 cells, 1.7 μg/ml MMS, 5 days (120 hours), MTT
[6] = Homo sapiens, SW-620, 120 h, read-out: IC50 (nM), potentiation of the growth inhibiting activity of MMS, SW620 cells, 1.7 μg/ml MMS, 5 days (120 hours), MTT

T1 sequence (P09874 whole entry): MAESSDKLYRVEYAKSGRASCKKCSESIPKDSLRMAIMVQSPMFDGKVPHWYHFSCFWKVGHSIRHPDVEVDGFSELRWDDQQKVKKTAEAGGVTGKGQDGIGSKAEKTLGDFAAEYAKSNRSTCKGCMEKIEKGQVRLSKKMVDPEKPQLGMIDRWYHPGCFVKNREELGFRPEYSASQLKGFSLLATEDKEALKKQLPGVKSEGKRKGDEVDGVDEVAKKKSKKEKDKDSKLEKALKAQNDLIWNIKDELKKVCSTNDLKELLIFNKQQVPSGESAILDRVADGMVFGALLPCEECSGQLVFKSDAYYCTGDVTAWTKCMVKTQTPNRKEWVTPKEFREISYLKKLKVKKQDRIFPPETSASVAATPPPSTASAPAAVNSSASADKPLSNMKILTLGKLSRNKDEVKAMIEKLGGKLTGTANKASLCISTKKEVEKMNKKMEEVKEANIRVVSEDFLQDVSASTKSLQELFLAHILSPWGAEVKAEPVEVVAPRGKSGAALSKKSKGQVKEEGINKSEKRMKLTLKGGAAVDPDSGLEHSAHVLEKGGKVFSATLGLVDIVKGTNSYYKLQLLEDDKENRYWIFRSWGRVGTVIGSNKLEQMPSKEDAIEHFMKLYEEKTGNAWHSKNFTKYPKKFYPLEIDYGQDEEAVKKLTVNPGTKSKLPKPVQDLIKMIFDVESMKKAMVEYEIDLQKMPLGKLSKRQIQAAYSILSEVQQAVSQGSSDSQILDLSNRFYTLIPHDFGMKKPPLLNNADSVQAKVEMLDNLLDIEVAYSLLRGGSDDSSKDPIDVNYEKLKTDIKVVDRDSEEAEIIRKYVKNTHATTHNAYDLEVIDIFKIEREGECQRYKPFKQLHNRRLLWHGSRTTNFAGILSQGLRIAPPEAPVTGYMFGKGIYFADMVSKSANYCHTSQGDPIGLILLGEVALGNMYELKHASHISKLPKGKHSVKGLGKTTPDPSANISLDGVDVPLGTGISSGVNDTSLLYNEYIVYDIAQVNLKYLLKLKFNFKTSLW

Compound | IC50 [1] | IC50 (PARP-1 enzyme) | EC50 [2, 4] | IC50 [3, 5] | IC50 [3, 6] | efficacy in treatment of advanced breast cancer (advanced breast cancer) | EC50 ([2]; Homo sapiens, T47D, 24 h) | IC50 ([3]; Homo sapiens, SW-620, 120 h, read-out: IC50 (nM), potentiation of the growth inhibiting activity of MMS) | EC50 ([2]; T47D cells, 11.1 μg/ml MMS, 24 hours, intracellular caspase-3 activity)
O=C(c1cc(Cn2c(=O)[nH]c(=O)c3ccccc32)ccc1F)N1CCN(c2ncccn2)CC1 [Example 25, 1-(4-Fluoro-3-(4-(pyrimidin-2-yl)piperazine-1-carbonyl)benzyl)quinazoline-2,4(1H,3H)-dione] | 98 nM | 0.21 nM | 3.9 nM | 9.8 nM |  |  |  |  | 
O=C(c1cc(Cn2c(=O)[nH]c(=O)c3c(F)cccc32)ccc1F)N1CCN(c2nccs2)CC1 [Example 189, 5-Fluoro-1-(4-fluoro-3-(4-(thiazol-2-yl)piperazine-1-carbonyl)benzyl)quinazoline-2,4(1H,3H)-dione] | 736 nM | 2.2 nM |  |  | 10 nM |  |  |  | 
O=C(c1cc(Cn2c(=O)[nH]c(=O)c3c(F)cccc32)ccc1F)N1CCN(c2ncccn2)CC1 [Example 132, 5-Fluoro-1-(4-fluoro-3-(4-(pyrimidin-2-yl)piperazine-1-carbonyl)benzyl)quinazoline-2,4(1H,3H)-dione] | 17 nM | 1.19 nM | 0.93 nM |  | 4.1 nM |  |  |  | 
O=C(c1ccccc1)N1CCN(C(=O)c2cccc(Cn3c(=O)[nH]c(=O)c4ccccc43)c2)CC1 [Example 8, 1-(3-(4-Benzoylpiperazine-1-carbonyl)benzyl)quinazoline-2,4(1H,3H)-dione] | 2360 nM | 5.3 nM | 120 nM |  | 112 nM |  |  |  | 
O=C(c1cc(Cn2c(=O)[nH]c(=O)c3ccccc32)ccc1F)N1CCN(C(=O)C2CCC2)CC1 [Example 44, 1-(3-(4-(Cyclobutylcarbonyl)piperazine-1-carbonyl)-4-fluorobenzyl)quinazoline-2,4(1H,3H)-dione] | 318 nM | 0.88 nM | 5.7 nM |  | 6.8 nM |  |  |  | 
O=C(c1cccc(Cn2c(=O)[nH]c(=O)c3ccccc32)c1)N1CCN(c2ccccn2)CC1 [Example 3, 1-(3-(4-(Pyridin-2-yl)piperazine-1-carbonyl)benzyl)quinazoline-2,4(1H,3H)-dione] | 445 nM | 4.2 nM | 56 nM |  | 90 nM |  |  |  | 
O=C(c1cccc(Cn2c(=O)[nH]c(=O)c3c(F)cccc32)c1)N1CCN(c2ncccn2)CC1 [Example 127, 5-Fluoro-1-(3-(4-(pyrimidin-2-yl)piperazine-1-carbonyl)benzyl)quinazoline-2,4(1H,3H)-dione] | 44 nM | 0.37 nM | 4.1 nM |  | 13 nM |  |  |  | 
O=C(c1cc(Cn2c(=O)[nH]c(=O)c3c(F)cccc32)ccc1F)N1CCN(c2ccccn2)CC1 [Example 135, 5-Fluoro-1-(4-fluoro-3-(4-(pyridin-2-yl)piperazine-1-carbonyl)benzyl)quinazoline-2,4(1H,3H)-dione] |  | 1.74 nM | 9.8 nM |  | 6.8 nM |  |  |  | 
O=C(c1cccc(Cn2c(=O)[nH]c(=O)c3ccccc32)c1)N1CCN(C(=O)C2CCCC2)CC1 [Example 14, 1-(3-(4-(Cyclopentylcarbonyl)piperazine-1-carbonyl)benzyl)quinazoline-2,4(1H,3H)-dione] |  | 2.3 nM | 39 nM |  | 102 nM |  |  |  | 
O=C(c1cc(Cc2n[nH]c(=O)c3ccccc23)ccc1F)N1CCN(C(=O)C2CC2)CC1 [AZD2281, olaparib, reference compound] |  |  |  |  |  | effective | 24 nM | 28 nM | 
O=C(c1cc(Cn2c(=O)[nH]c(=O)c3cc(F)ccc32)ccc1F)N1CCN(c2ncccn2)CC1 [Example 144, 6-Fluoro-1-(4-fluoro-3-(4-(pyrimidin-2-yl)piperazine-1-carbonyl)benzyl)quinazoline-2,4(1H,3H)-dione] | 78 nM | 1.15 nM | 3.4 nM |  | 2.8 nM |  |  |  | 
O=C(c1cccc(Cn2c(=O)[nH]c(=O)c3ccccc32)c1)N1CCN(c2ncccn2)CC1 [Example 4, 1-(3-(4-(Pyrimidin-2-yl)piperazine-1-carbonyl)benzyl)quinazoline-2,4(1H,3H)-dione] | 55 nM | 0.96 nM |  | 12 nM |  |  |  |  | 12 nM
O=C(c1cc(Cn2c(=O)[nH]c(=O)c3cc(F)ccc32)ccc1F)N1CCN(C(=O)C2CCCCC2)CC1 [Example 147, 1-(3-(4-(Cyclohexylcarbonyl)piperazine-1-carbonyl)-4-fluorobenzyl)-6-fluoroquinazoline-2,4(1H,3H)-dione] | 47 nM | 1.2 nM | 3.4 nM |  | 2.7 nM |  |  |  | 
O=C(c1cccc(Cn2c(=O)[nH]c(=O)c3cc(F)ccc32)c1)N1CCN(c2ncccn2)CC1 [Example 139, 6-Fluoro-1-(3-(4-(pyrimidin-2-yl)piperazine-1-carbonyl)benzyl)quinazoline-2,4(1H,3H)-dione] | 36 nM | 1.3 nM | 4 nM |  | 16 nM |  |  |  | 
